Measurements published in BindingDB's records for doi:10.7270/Q2KP80J0 (The Scripps Research Institute Molecular Screening Center, 2007).

What follows are compounds tested against T1, Ephrin type-B receptor 4 (Homo sapiens, UniProt P54760) (assay: EphB4-ephrin-B2 interaction antagonists, dose response, biochemical, TNYL-RAW peptide displacement (AID 835)).
T1 sequence (P54760 whole entry): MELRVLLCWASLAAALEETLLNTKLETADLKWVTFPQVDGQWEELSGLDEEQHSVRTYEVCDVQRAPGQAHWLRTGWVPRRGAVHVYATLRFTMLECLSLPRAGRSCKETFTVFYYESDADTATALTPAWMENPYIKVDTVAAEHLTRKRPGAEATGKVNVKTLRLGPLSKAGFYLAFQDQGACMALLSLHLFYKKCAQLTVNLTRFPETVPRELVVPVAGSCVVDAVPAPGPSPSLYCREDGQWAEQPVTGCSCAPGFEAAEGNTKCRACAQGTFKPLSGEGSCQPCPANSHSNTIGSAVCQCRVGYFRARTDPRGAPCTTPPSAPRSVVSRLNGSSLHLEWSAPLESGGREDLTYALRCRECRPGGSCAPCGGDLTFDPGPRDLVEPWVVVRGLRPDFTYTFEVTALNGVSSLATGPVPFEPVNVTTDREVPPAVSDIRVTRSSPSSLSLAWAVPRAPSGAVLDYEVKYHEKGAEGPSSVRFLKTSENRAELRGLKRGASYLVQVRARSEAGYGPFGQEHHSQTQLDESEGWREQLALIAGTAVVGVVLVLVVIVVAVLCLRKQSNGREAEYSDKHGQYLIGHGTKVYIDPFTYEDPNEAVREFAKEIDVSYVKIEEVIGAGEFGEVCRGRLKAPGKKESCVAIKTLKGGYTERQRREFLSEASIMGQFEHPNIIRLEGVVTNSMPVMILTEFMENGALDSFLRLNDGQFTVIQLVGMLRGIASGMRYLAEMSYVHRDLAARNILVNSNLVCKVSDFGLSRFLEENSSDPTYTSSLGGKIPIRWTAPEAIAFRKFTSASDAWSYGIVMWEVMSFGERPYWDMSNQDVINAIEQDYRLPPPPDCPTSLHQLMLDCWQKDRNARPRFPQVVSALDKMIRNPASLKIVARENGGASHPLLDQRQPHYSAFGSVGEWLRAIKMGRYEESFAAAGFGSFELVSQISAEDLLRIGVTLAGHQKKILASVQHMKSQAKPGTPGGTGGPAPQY

Row | Structure (SMILES) | IC50 [µM]
1 | Cc1cc(C)c(S(=O)(=O)NCc2cn3c(C)csc3n2)cc1C [2,4,5-trimethyl-N-[(3-methyl-6-imidazo[2,1-b]thiazolyl)methyl]benzenesulfonamide] | > 79.4
2 | Cc1cc(=O)oc(C)c1C(=O)OCC(=O)c1ccc(Cl)cc1 [2,4-Dimethyl-6-oxo-6H-pyran-3-carboxylic acid 2-(4-chloro-phenyl)-2-oxo-ethyl ester] | > 79.4
3 | CSc1cccc(-n2c(C)cc(C(N)=O)c2C)c1 [2,5-dimethyl-1-(3-methylsulfanylphenyl)pyrrole-3-carboxamide] | > 79.4
4 | Cc1c2cc(O)c(=O)cc-2oc2cc(O)c(O)cc12 [2,6,7-Trihydroxy-9-methyl-xanthen-3-one] | 3.6
5 | CCCc1nnc(NC(=O)CN2C(=O)c3ccccc3S2(=O)=O)s1 [2-(1,1-dioxido-3-oxo-1,2-benzisothiazol-2(3H)-yl)-N-(5-propyl-1,3,4-thiadiazol-2-yl)acetamide] | > 79.4
6 | CCOC(=O)c1cnc(Nc2nc3ccccc3o2)nc1CN1CCN(C)CC1 [2-(1,3-benzoxazol-2-ylamino)-4-[(4-methyl-1-piperazinyl)methyl]-5-pyrimidinecarboxylic acid ethyl ester] | > 79.4
7 | O=C(COC(=O)C(Cc1ccccc1)NC(=O)c1ccco1)NC1CC1 (configuration not stated) [2-(2-furoylamino)-3-phenyl-propionic acid [2-(cyclopropylamino)-2-keto-ethyl] ester] | > 79.4
8 | O=c1c2ccccc2nc(-c2ccoc2)n1CCc1ccccc1 [2-(3-furanyl)-3-(2-phenylethyl)-4-quinazolinone] | > 79.4
9 | COc1cccc(C(C#N)N2CCOCC2)c1 (configuration not stated) [2-(3-methoxyphenyl)-2-(4-morpholinyl)acetonitrile] | > 79.4
10 | O=C(CSc1nnc(-c2ccccn2)n1Cc1ccccc1)NC1CCCC1 [2-(4-Benzyl-5-pyridin-2-yl-4H-[1,2,4]triazol-3-ylsulfanyl)-N-cyclopentyl-acetamide] | > 79.4
11 | Cc1c(NC(=O)COC(=O)C(c2ccc(Cl)cc2)C(C)C)c(=O)n(-c2ccccc2)n1C (configuration not stated) [2-(4-chlorophenyl)-3-methyl-butyric acid [2-keto-2-[(3-keto-1,5-dimethyl-2-phenyl-3-pyrazolin-4-yl)amino]ethyl] ester] | > 79.4
12 | CCCc1nnc(NC(=O)CNc2ccc(F)cc2)s1 [2-(4-fluoroanilino)-N-(5-propyl-1,3,4-thiadiazol-2-yl)acetamide] | > 79.4
13 | Cc1[nH]c2ccccc2c1/C=C1\N=C(c2ccc(F)cc2)OC1=O [2-(4-fluorophenyl)-4-[(2-methyl-1H-indol-3-yl)methylene]-1,3-oxazol-5(4H)-one] | > 79.4
14 | CCCOC(=O)C(C)n1cnc2sc(C)c(C)c2c1=O (configuration not stated) [2-(4-keto-5,6-dimethyl-thieno[2,3-d]pyrimidin-3-yl)propionic acid propyl ester] | > 79.4
15 | Cc1ccc(-c2nc3cccnc3o2)cc1NC(=O)COc1ccc(C(C)(C)C)cc1 [2-(4-tert-butylphenoxy)-N-(2-methyl-5-[1,3]oxazolo[5,4-b]pyridin-2-ylphenyl)acetamide] | > 79.4
16 | CN(C)c1nccc(Nc2ccccc2)c1C#N [2-(dimethylamino)-4-phenylazanyl-pyridine-3-carbonitrile] | > 79.4
17 | CN(C)c1nc2n(c(=O)n1)CCO2 [2-(dimethylamino)-6,7-dihydro-[1,3]oxazolo[3,2-a][1,3,5]triazin-4-one] | > 79.4
18 | O=C(CN1C(=O)NC2(CCCC2)C1=O)NCCC1=CCCCC1 [2-[2,4-bis(oxidanylidene)-1,3-diazaspiro[4.4]nonan-3-yl]-N-[2-(cyclohexen-1-yl)ethyl]ethanamide] | > 79.4
19 | O=C(NNC(=O)C1CCCCC1)C(=O)NC1CCCCC1 [2-[2-(cyclohexanecarbonyl)hydrazinyl]-N-cyclohexyl-2-oxoacetamide] | > 79.4
20 | Cc1ccc(Nc2cnn(C34CC5CC(CC(CC(=O)O)(C5)C3)C4)c(=O)c2Cl)cc1 [2-[3-[5-chloro-4-(4-methylanilino)-6-oxo-1-pyridazinyl]-1-adamantyl]acetic acid] | > 79.4
21 | CC(=O)Nc1ccc(SCC(=O)OCC(=O)NC(=O)NCc2ccco2)cc1 [2-[(4-acetamidophenyl)thio]acetic acid [2-(2-furfurylcarbamoylamino)-2-keto-ethyl] ester] | > 79.4

Row | Structure (SMILES) | IC50 [µM]
22 | Cn1cnnc1SCC(=O)Nc1ccc2nc(SCc3cccc4ccccc34)sc2c1 [2-[(4-methyl-1,2,4-triazol-3-yl)sulfanyl]-N-[2-(naphthalen-1-ylmethylsulfanyl)-1,3-benzothiazol-6-yl]acetamide] | > 79.4
23 | CCCCCCOC(=O)C(C#N)c1nc2ccccc2nc1N1CCN(C)CC1 (configuration not stated) [2-cyano-2-[3-(4-methyl-1-piperazinyl)-2-quinoxalinyl]acetic acid hexyl ester] | > 79.4
24 | CCC1CCCCN1C(=O)Nc1cccc(NC(=O)N2CCCCC2CC)c1 (configuration not stated) [2-ethyl-N-[3-[(2-ethylpiperidin-1-yl)carbonylamino]phenyl]piperidine-1-carboxamide] | > 79.4
25 | Cc1cc(=O)n(CC(C)C)c(O)c1C#N [2-hydroxy-1-isobutyl-4-methyl-6-oxo-1,6-dihydro-3-pyridinecarbonitrile] | > 79.4
26 | Cc1cccc(NC(=O)CSc2nnc(-c3ccc(S(=O)(=O)N4CCCC4)cc3)o2)c1 [2-{5-[4-(Pyrrolidine-1-sulfonyl)-phenyl]-[1,3,4]oxadiazol-2-ylsulfanyl}-N-m-tolyl-acetamide] | > 79.4
27 | COc1ccc(C(=O)NN=C2SCC(=O)N2Cc2ccc3c(c2)OCO3)cc1OC [3,4-Dimethoxy-benzoic acid (3-benzo[1,3]dioxol-5-ylmethyl-4-oxo-thiazolidin-2-ylidene)-hydrazide] | > 79.4
28 | N#Cc1ncc(C(F)(F)F)cc1Sc1ccc(N)cc1 [3-(4-aminophenyl)sulfanyl-5-(trifluoromethyl)pyridine-2-carbonitrile] | > 79.4
29 | COc1ccc2[nH]c(=O)c(CN(Cc3ccccc3)Cc3nnnn3CC3CCCO3)cc2c1 (configuration not stated) [3-({Benzyl-[1-(tetrahydro-furan-2-ylmethyl)-1H-tetrazol-5-ylmethyl]-amino}-methyl)-6-methoxy-1H-quinolin-2-one] | > 79.4
30 | C=CCn1c(C#N)c(N)sc1=N [3-Allyl-5-amino-2-imino-2,3-dihydro-thiazole-4-carbonitrile] | > 79.4
31 | Cn1c(=O)c(NCCc2ccccc2)c2c3c(cccc31)C(=O)c1ccccc1-2 [3-Methyl-1-phenethylamino-3H-naphtho[1,2,3-de]quinoline-2,7-dione] | 1
32 | Cc1cc(C(=O)CN2C(=O)NC(c3ccccc3)(c3ccccc3)C2=O)c(C)n1Cc1ccccc1 [3-[2-(1-benzyl-2,5-dimethyl-pyrrol-3-yl)-2-keto-ethyl]-5,5-diphenyl-hydantoin] | > 79.4
33 | Cc1cc(C)n2nc(SC3CCCCN(C(=O)c4ccc(F)cc4)C3=O)nc2n1 (configuration not stated) [3-[(5,7-dimethyl-[1,2,4]triazolo[1,5-a]pyrimidin-2-yl)sulfanyl]-1-(4-fluorobenzoyl)azepan-2-one] | > 79.4
34 | CCOC(=O)c1oc2cccc(O)c2c1CN(Cc1ccccc1)C(C)=O [3-[[acetyl(benzyl)amino]methyl]-4-hydroxy-coumarilic acid ethyl ester] | > 79.4
35 | CC1CCN(S(=O)(=O)c2cc(Br)cc(C(=O)NC3=NCCS3)c2)CC1 [3-bromanyl-N-(4,5-dihydro-1,3-thiazol-2-yl)-5-(4-methylpiperidin-1-yl)sulfonyl-benzamide] | > 79.4
36 | Clc1cccc(CN=Nc2ncnc3ccccc23)c1 [3-chlorobenzenecarbaldehyde N-(4-quinazolinyl)hydrazone] | > 79.4
37 | CC(C)CC(=O)NC(=S)NCCc1ccccc1 [3-methyl-N-(2-phenylethylcarbamothioyl)butanamide] | > 79.4
38 | O=C(CCC1N=C2c3ccccc3N=C(SCc3ccc(F)cc3)N2C1=O)NCc1ccco1 (configuration not stated) [3-{5-[(4-fluorobenzyl)thio]-3-oxo-2,3-dihydroimidazo[1,2-c]quinazolin-2-yl}-N-(2-furylmethyl)propanamide] | > 79.4
39 | O=C(CC(O)(c1ccccc1)C(F)(F)F)c1cccs1 (configuration not stated) [4,4,4-trifluoro-3-hydroxy-3-phenyl-1-(2-thienyl)-1-butanone] | > 79.4
40 | CC1=C(C(=O)N2CCC3(CC2)OCCO3)C2(CCC(C)CC2)OC1=O (configuration not stated) [4-(1,4-dioxa-8-azaspiro[4.5]dec-8-ylcarbonyl)-3,8-dimethyl-1-oxaspiro[4.5]dec-3-en-2-one] | > 79.4
41 | CN(c1ccc(Cl)cc1)c1cc(=O)n(C)c2ccccc12 [4-(4-chloro-N-methyl-anilino)-1-methyl-carbostyril] | > 79.4
42 | CCOC(=O)N1CCC(n2c(SCC(=O)NCc3ccccc3)nc3ccccc3c2=O)CC1 [4-[2-[[2-(benzylamino)-2-keto-ethyl]thio]-4-keto-quinazolin-3-yl]piperidine-1-carboxylic acid ethyl ester] | > 79.4
